Common to all, as to assay type: physicochemical
Data set [1] can be described thus: Solid form stability of polymorph on drying or storage, analysed by XRPD. On the procedure:
Compound 1 acetate Type E (1 g) was added to a beaker and dried in the vacuum oven at 40° C. overnight (not more than 18 hours). The solid was analyzed by XRPD analysis and shown to be Type B (FIG. 6).
Four samples of compound 1 acetate Type E were added to vials and placed in a desiccator, under vacuum, for up to 7 days.

A short description of data set [2]: Dynamic vapour sorption experiment. As to conditions: for weight gain during the sorption isotherm: from 40-80% RH, 10% RH increments. On the procedure:
Further weight loss above 160° C. may correspond with the onset of decomposition. A dynamic vapour sorption experiment of Type B material was performed. The sample was subjected to a step profile from 40-90% RH at 10% increments, followed by desorption from 90-0% RH at 10% increments and then adsorption from 0-40% RH at 10% increments.
A dynamic vapour sorption experiment of Type E material was performed. The sample was subjected to a step profile from 40 to 90% RH at 10% increments, followed by desorption from 90 to 0% RH at 10% increments and then adsorption from 0 to 40% RH at 10% increments. […] There was a larger weight gain above 80% RH.

Data set [3] can be described thus: Slurrying in EtOH at 40° C., form transformation by XRPD. As to conditions: after 3 days.
Data set [4] can be described thus: Form stability as a function of ethanol activity (aEtOH). How it is done: Compound 1 acetate and a solvent or solvent mixture were added to a vial and stirred at ambient temperature overnight to form a saturated suspension. Ethanol (EtOH) activity (aEtOH) of the solvent or solvent mixture was calculated using UNIFAC software. A further aliquot of the solvent or solvent mixture was added to the vial if the mixture was very thick. If all solids had dissolved, further amounts of compound 1 acetate were added and the mixture was stirred overnight. The slurry was then seeded with compound 1 acetate and compound 1 acetate-EtOH solvate and allowed to stir at ambient temperature for several days before isolation of solids and analysis by XRPD.
Compound 1 acetate Type E is a metastable solvate and converts to compound 1 acetate Type B on drying or storage at low ethanol activity (aEtOH<0.2). Type E was stable at an EtOH activity of >0.8.

Setting [5] is: Ambient conditions (44-63% RH, 20-25° C.) for 5 days.
The mark [6] stands for this setting: ambient temperature in the desiccator.

Starred links: 1 amine or outer side, 2 acyl side, 3 side chain; linkers in the order of their positions; H or OH if unused. Positions of bridges follow the written chain, without caps; N, C: chain ends. Non-standard residues stand in square brackets, D forms with d. Residues, ends and D or L forms follow the SMILES beside them. *: point of attachment. Orn(4R-OH,5R-OCH2CH2NMe3+) = C[N+](C)(C)CCO[C@@H](N[*:3])[C@H](O)C[C@H](N[*:1])C(=O)[*:2]; pTerphenylCO(4''-OnC5H11) = CCCCCOc1ccc(-c2ccc(-c3ccc(C(=O)*)cc3)cc2)cc1; hTyr(3S-OH,4S-OH) = N[C@H](C(=O)O)[C@H](O)[C@@H](O)c1ccc(O)cc1; Pro(3S-OH,4S-Me) = C[C@H]1CN[C@H](C(=O)O)[C@H]1O; Hyp = O=C(O)[C@@H]1C[C@@H](O)CN1 Bounds are passed on as bounds.

Turning to `CCCCCOc1ccc(-c2ccc(-c3ccc(C(=O)N[C@H]4C[C@@H](O)[C@@H](OCC[N+](C)(C)C)NC(=O)[C@@H]5[C@@H](O)[C@@H](C)CN5C(=O)[C@H]([C@@H](C)O)NC(=O)[C@H]([C@H](O)[C@@H](O)c5ccc(O)cc5)NC(=O)[C@@H]5C[C@@H](O)CN5C(=O)[C@H]([C@@H](C)O)NC4=O)cc3)cc2)cc1` [Type B] ({pTerphenylCO(4''-OnC5H11)}-[Orn(4R-OH,5R-OCH2CH2NMe3+)]T[Hyp][hTyr(3S-OH,4S-OH)]T[Pro(3S-OH,4S-Me)]; lactam 1-C), the “XRPD Result” value in data set [1] (setting [5]) was “Type B”. Further, in data set [2], the “weight gain during the sorption isotherm” value was determined as 6%. Moreover, the “form transformation to Type A (XRPD)” value in data set [3] is given as “no form transformation”.
Regarding `CCCCCOc1ccc(-c2ccc(-c3ccc(C(=O)N[C@H]4C[C@@H](O)[C@@H](OCC[N+](C)(C)C)NC(=O)[C@@H]5[C@@H](O)[C@@H](C)CN5C(=O)[C@H]([C@@H](C)O)NC(=O)[C@H]([C@H](O)[C@@H](O)c5ccc(O)cc5)NC(=O)[C@@H]5C[C@@H](O)CN5C(=O)[C@H]([C@@H](C)O)NC4=O)cc3)cc2)cc1` [Type E] ({pTerphenylCO(4''-OnC5H11)}-[Orn(4R-OH,5R-OCH2CH2NMe3+)]T[Hyp][hTyr(3S-OH,4S-OH)]T[Pro(3S-OH,4S-Me)]; lactam 1-C), the “XRPD Result” value is given as “Type B” in data set [1] (setting [5]); “Type E” in data set [1] (Desiccator under vacuum at ambient conditions for 4 hours); “Type B + Type E” in data set [1] (Desiccator under vacuum at ambient conditions for 1 day); “Type B” in data set [1] (Desiccator under vacuum at ambient conditions for 5 days); “Type B” in data set [1] (Desiccator under vacuum at ambient conditions for 7 days). In addition, in data set [1] (setting [6]), the “time for which the form was stable” value is “up to 4 hours”. Besides, the “time to complete conversion to Type B” value in data set [1] (setting [6]) is at most 5 days. Further, the “XRPD Result after drying” value in data set [1] (vacuum oven at 40° C. overnight (not more than 18 hours)) was “Type B”. In data set [2] (equilibration hold at 40% RH), the “weight loss during the equilibration hold” value is on record as about 18.5%. Moreover, the “weight gain during the sorption isotherm” value in data set [2] was found to be 5%. Besides, the “EtOH activity at which the form was stable” value in data set [4] is given as over 0.8. The “ethanol activity at which the form converts to Type B on storage” value in data set [4] (low ethanol activity) is under 0.2.

The record behind these values is US12060439B2, “Polymorph of echinocandin antifungal agent” (Cidara Therapeutics, Inc., priority 2018, dated 2024).
